# In patent publication US10190120B2, “Zn-DPA complex compounds and siRNA delivery systems containing the same” (KOREA INSTITUTE OF SCIENCE AND TECHNOLOGY, priority 2016, dated 2019):
# What was measured:
# HCT116 cell line = assay: siRNA delivery efficiency with biotin pre-treatment (competition); type: cell-based; conditions: biotin 0.5 mM and 5 mM 30 minutes before, molar ratio 1:400, FIG. 6
# Description: (§1) According to Experimental Example 1 (1), composites having a molar ratio of siRNA (luciferase siRNA, siLuc) and the Zn-DPA complex compound of 1:50, 1:100, 1:200, 1:400, 1:600, 1:800, and 1:1,000 were prepared, and the concentration of siLuc per sample was adjusted constantly at 20 nM. The composite was treated with ssPEI/CMV-LUC (1 μg) in HeLa, HepG2, and HCT116 cell lines, and was washed with a Dulbecco's phosphate buffered saline solution (DPBS) after 6 hours, and then the composite was treated in a serum-free medium. After 4 hours, the medium was exchanged with a 10% serum medium, and then the samples were cultivated at 37° C. for 24 hours. The cells were washed with the DPBS and were dissolved in a lysis buffer (200 μL), and then the degree of expression of the luciferase was determined by using a microplate fluorescence analyzer (VICTOR 3 V Multilabel Counter, PerkinElmer, Wellesley, Mass.). The results are illustrated in FIG. 5.
# (§2) In order to evaluate the delivery efficiency of siRNA (luciferase siRNA, siLuc) for the Zn-DPA complex compound synthesized in Example 1-3, a cell experiment was performed in the same manner as in Experimental Example 4 by classifying the experimental groups into groups treated with biotin at a concentration of 0.5 mM and 5 mM 30 minutes before treating the groups with a composite of siRNA and the Zn-DPA complex compound, or a non-treatment group. […]
# HepG2 cell line = assay: as above; type: cell-based; conditions: biotin 0.5 mM and 5 mM 30 minutes before, molar ratio 1:400, FIG. 6
# Description: as §1, §2
structure (smiles),measurement,setting,value
O=C(CCCCC1SC[C@H]2NC(=O)N[C@@H]12)NCCCCOc1cccc(CN(Cc2ccccn2)Cc2ccccn2)c1 (some centres unmarked) [Example 1-3],effect of biotin on cell delivery efficiency / amount of luciferase expressed,HCT116 cell line,slight
same,effect of biotin on cell delivery efficiency / amount of luciferase expressed,HepG2 cell line,significantly varied depending on the presence or absence of biotin
